Results as given in patent publication US20190275179A1, “SONOPHORE-LABELED PROBES AND RELATED IN VIVO IMAGING TECHNIQUES” (MEMORIAL SLOAN KETTERING CANCER CENTER, priority 2016, published 2019).

Assays:
[1] = Absorbance spectra of BHQ-1 and BHQ-1-cRGD by spectrophotometry; format: physicochemical; conditions: measured in ethanol, 250 nm to 750 nm
Experimental: To a stirring solution of cyclic RGD (cyclo(Arg-Gly-Asp-D-Phe-Lys) (cRGD), 1.0 mg, 1.66 μmol, 1.0 eq., Peptides International, KY, US) in anhydrous DMF (200 μL) a solution of BHQ-1 N-hydroxysuccinimide (NHS) ester (1.2 mg, 2.0 μmol, 1.2 eq., Biosearch Technologies, CA, US) in anhydrous DMF (200 μL) and […] (1.2 μL, 8.0 μmol, 4.8 eq.) was added sequentially. The resulting reaction solution was stirred for 4 h at room temperature. Purification by high performance liquid chromatography (HPLC) (C18, 10% to 100% of acetonitrile over 10 min, then 100% of acetonitrile until 18 min, 1.0 mL/min) yielded BHQ-1-cRGD (1.5 mg, 1.4 μmol, 82%) as a black solid. The purity of BHQ-1-cRGD was analyzed by performing analytical HPLC (rt=11.0 min, >97%). The identity of the product ([…], MW: 1090.21 g/mol) was verified by electrospray ionization mass spectrometry (ESI(+): m/z (%) 546.70 (100) [M+2H]^2+, 1090.40 (25) [M+H]^+). The absorbance spectra of BHQ-1 and BHQ-1-cRGD were measured in ethanol using spectrophotometry from 250 nm to 750 nm.

[2] = In vivo optoacoustic imaging (RSOM) of BHQ-1 in mouse footpad; set-up: species or system mice
Experimental: For in vivo experiments, 6-8 week old female Hsd: Athymic Nude-Foxn1^nu mice were purchased from Envigo (IN, US). All animal experiments were performed in accordance with institutional guidelines and approved by the IACUC of MSK, and followed NIH guidelines for animal welfare.
For imaging, a high-resolution raster-scan optoacoustic mesoscopy (RSOM) prototype scanner was used in an epi-illumination mode. The scanner illuminates the tissue with a fast monochromatic nanosecond laser (1 ns, 2 kHz, 1 mJ pulse energy at 532 nm). The laser light was coupled to the sample using a three arm fiber bundle which is combined with the ultrasound detector into a single scan unit. The optoacoustic signals were measured with a 50 MHz spherically focused detector and a bandwidth of 5-80 MHz. Furthermore, the signals were amplified with a 63 dB low noise amplifier and digitized using a fast 12 bit data acquisition card. The scan was performed in a continuous-discrete manner. The usual scan took 1.30 minutes for a field of view of 8×8 mm^2 and the maximum depth was about 2 mm, limited by the penetration depth of 532 nm photons in tissue.
The raw signals were transformed to the computer on which they were later reconstructed using beam forming. Before reconstruction, the signals were divided into two sub-bands: low frequencies 5-25 MHz and high frequencies 25-80 MHz. These sub-bands were later on separately reconstructed an overlayed using different colors (red=low frequencies, green=high frequencies). For the reconstruction a speed of sound of 1540 m/s has been used and the reconstruction has been performed with voxel sizes of 20×20×5 μm^3. Finally, the Hilbert transform was applied to the reconstructed volume to remove the negative values and the images were further processed using a Wiener and a Median filter to improve the signal to noise ratio. For visualization we took the maximum intensity of the three-dimensional volume.
All mice were anesthetized using 2% isoflurane. For imaging the quencher dye in vivo, 10 nmol BHQ-1 solution were injected subcutaneously into the footpad of 3 mice. The mouse was then placed in a pre-warmed water bath on a mouse bed keeping the head of the animal above water level. The foot of the mouse was stabilized under water with tape to keep it in a static position for the measurement procedure. The feet were measured before and directly after injection using RSOM as described under 2.3. Quantitative analysis was done in ImageJ by placing a ROI over the injection site of each foot as well as over the background blood vessels in the foot pad.

[3] = 10 nmol subcutaneous into footpad

For `COc1cc(/N=N/c2ccc(C)cc2[N+](=O)[O-])c(C)cc1/N=N/c1ccc(N)cc1` [BHQ-1], the absorption spectrum peak [1] was 515 nm, the “optoacoustic signal at the injection site, high frequencies (25-80 MHz)” value [2, 3] was 55.6±5.7 AU and the “optoacoustic signal at the injection site, low frequencies (5-25 MHz)” value [2, 3] was 67.2±3.4 AU. For the same compound, the “optoacoustic signal at the injection site, overlay image of all detected frequencies” value ([2]; 10 nmol subcutaneous into footpad, directly after injection) was 121.6±14.2 AU and the “optoacoustic signal at injection site relative to surrounding footpad vessels” value ([2]; overlay of all frequencies, 10 nmol s.c.) was ~5 times.
